# Data published in US20110263520A1, “COMPOSITION FOR USE IN CONTROLLING HARMFUL ORGANISMS THAT CONTAINS 16-KETO ASPERGILLIMIDE” (priority 2008, published 2011).
# Where two headings read alike, the source gives them in different places.
# Key:
# [1] = test system: Laodelphax striatellus; experiment: Foliage application test for Laodelphax striatellus (Test Example 2); type: in vivo; conditions: 16-keto aspergillimide 2.5 ppm alone
# Description: (§1) Colby's formula: Theoretical value (%)=100−(A×B)/100
# [2] = test system: Aphis gossypii; experiment: Foliage application test for Aphis gossypii, cucumber leaf disk (Test Example 3); type: in vivo; conditions: 16-keto aspergillimide 1.25 ppm alone
# Description: Test solutions adjusted to a predetermined concentration (50% aqueous acetone solution; 0.05% Tween 20 added) were applied to a leaf disk having a diameter of 2.0 cm cut out from a cucumber grown in a pot.
# as §1
# [3] = test system: Nilaparvata lugens which is low-sensitive to imidacloprid; experiment: Foliage application test for Nilaparvata lugens, imidacloprid low-sensitive strain (Test Example 4); type: in vivo; conditions: for Death rate (%): low-sensitive strain, 6 days after release
# Experimental: (§2) Test solutions adjusted to a predetermined concentration (50% aqueous acetone solution) applied to rice seedlings in a pot for foliage application. […] The test was duplicated.
# (§3) For comparison, a test was carried out in the same manner as described above, except that a Nilaparvata lugens strain which is highly sensitive to imidacloprid was used.
# (§4) Regarding the origin of the test insect pests, Nilaparvata lugens which is low-sensitive to imidacloprid was an insect which had been collected outdoors in Kumamoto Prefecture, 2007, and Nilaparvata lugens which is sensitive to imidacloprid was an insect which had been collected in Kagoshima Prefecture and was then subjected to indoor successive raising.
# [4] = test system: Nilaparvata lugens which is sensitive to imidacloprid; experiment: Foliage application test for Nilaparvata lugens, imidacloprid-sensitive strain (Test Example 4, comparison); type: in vivo; conditions: 6 days after release
# Experimental: as §2, §3, §4
# [5] = test system: Haemaphysalis longicornis; experiment: Tickcidal effect against Haemaphysalis longicornis, dry film in glass vial (Test Example 5); type: in vivo; conditions: Haemaphysalis longicornis, 48 h, 2 days after release; for pest or weed control at 1 ppm: 16-keto aspergillimide 1 ppm alone; for pest or weed control at 2 ppm: 16-keto aspergillimide 2 ppm alone
# Experimental: Acetone solutions (30 μl) adjusted to predetermined concentrations were placed in 4 mL-volume glass vials. The vials were placed on a shaker, and a dry film of the compound was prepared on the inner wall of the vials. The vials were dried for 24 hr or more. Larvae (10 or more heads) were released in the vials, and the vials were lidded. The vials were then left to stand in a humidistat chamber (25° C., humidity 85%, fully darkened conditions). […] The test was duplicated.
# as §1
# [6] = test system: Haemaphysalis longicornis; experiment: Tickicidal effect against Haemaphysalis longicornis on body surface of mouse (Test Example 6); type: in vivo; conditions: for Death rate (%): mouse body surface, 3 days after release
# Experimental: Skin hair on the back of mouse (ICR, male, 5 week olds) was clipped in a diameter of about 2 cm, and a 15-mL polystyrene conical tube cut to have a height of about 1.5 cm was bonded to the body surface of the mouse with an instant adhesive. Test solutions (20 μl) adjusted with ethanol were dropped on the body surface of mice within the bonded tube. After thorough drying, larvae (10 or more heads) were released within the tube, and the tube was lidded. […] The test was hexaplicated.
# as §1
# [7] = test system: Laodelphax striatellus; experiment: Root dipping application test, Laodelphax striatellus (Reference Test Example 1); type: in vivo
# Description: (§5) A test solution adjusted to a predetermined concentration (10% aqueous acetone solution) was applied to the root of wheat seedlings in water culture. […] The test was duplicated.
# As is apparent from Table 15, the systemic insecticidal activity of 16-keto aspergillimide was much higher than that of a control compound, Asperparaline A.
# The 16-keto aspergillimide and Asperparaline A used in this test were obtained according to methods described in The Journal of Antibiotics, 1997, 50(10), 840-846. This is true of the following test examples.
# [8] = test system: Trigonotylus caelestialium; experiment: Root dipping application test, Trigonotylus caelestialium (Reference Test Example 2); type: in vivo
# Description: as §5
# [9] = test system: Nilaparvata lugens; experiment: Soil drenching application test, Nilaparvata lugens (Reference Test Example 3); type: in vivo
# Description: (§6) A test solution adjusted to a predetermined concentration (10% aqueous acetone solution) was applied to rice seedlings in a pot by soil drenching. The rice seedlings were allowed to stand for 3 days. […] The test was duplicated.
# [10] = test system: Sogatella furcifera; experiment: Soil drenching application test, Sogatella furcifera (Reference Test Example 4); type: in vivo
# Experimental: as §6
# The death rate against larvae at the second instar born of Sogatella furcifera was calculated in the same manner as in Reference Test Example 3.
# [11] = test system: Nephotettix cincticeps; experiment: Soil drenching application test, Nephotettix cincticeps (Reference Test Example 5); type: in vivo
# Experimental: as §6
# The death rate against second instar larvae was calculated in the same manner as in Reference Test Example 3.
# [12] = test system: Frankliniella occidentalis; experiment: Soil drenching application test, Frankliniella occidentalis (Reference Test Example 6); type: in vivo
# Description: A test solution adjusted to a predetermined concentration (10% aqueous acetone solution) was applied to cucumber seedlings in pot couture by soil drenching. The cucumber seedlings were allowed to stand for 4 days. A leaf disk having a diameter of 2.8 cm was then cut out from cucumber seedlings, and first instar larvae were released. […] The test was duplicated.
# [13] = test system: Sogatella furcifera; experiment: Foliage application test, Sogatella furcifera (Reference Test Example 7); type: in vivo
# Description: (§7) A test solution adjusted to a predetermined concentration (10% aqueous acetone solution) was applied to rice seedlings in pot culture. […] The test was duplicated.
# [14] = test system: Nephotettix cincticeps; experiment: Foliage application test, Nephotettix cincticeps (Reference Test Example 8); type: in vivo
# Experimental: as §7
# The death rate against larvae at the second instar born of Nephotettix cincticeps was calculated in the same manner as in Reference Test Example 7.
# [15] = test system: Frankliniella occidentalis; experiment: Foliage application test, Frankliniella occidentalis, haricot leaf disk (Reference Test Example 9); type: in vivo
# Description: A leaf disk having a diameter of 2.8 cm was cut out from haricot in pot culture, and a test solution adjusted to a predetermined concentration (50% aqueous acetone solution, with 0.05% Tween 20 added) was applied thereto. The leaf disk was air-air dried, and first instar larvae were released.
# [16] = test system: larvae at the third instar born of Haemonchus contortus; conditions: The Journal of Antibiotics, 1997, 50(10), 840-846; cited from earlier work
# [17] = test system: Laodelphax striatellus; experiment: Laodelphax striatellus soil drenching application test (Test Example 1); conditions: 16-keto aspergillimide 0.2 mg/seedling alone
# Experimental: Test solutions adjusted to a predetermined concentration (10% aqueous acetone solution) were applied to rice seedling in a pot by soil drenching. The rice seedling was allowed to stand for 3 days. Second instar larvae were released and was then allowed to stand in a humidistat chamber (light period 16 hr−dark period 8 hr) (25° C.).
# Death rate (%)={number of dead larvae/(number of survived larvae+number of dead larvae)}×100
# wherein A: 100−(death rate when application was performed only with 16-keto aspergillimide); and
# [18] = read-out: Death rate (%), Table 9
# [19] = read-out: Death rate (%), Table 10
# [20] = 16-keto aspergillimide 1 μg/2 cm^2 alone
# [21] = 0.5 μg/seedling, wheat seedlings, 3 days after release
# [22] = 1.0 mg/seedling, rice seedlings, 3 days after release
# [23] = 100 ppm, rice seedlings, 3 days after release
smiles,measurement,setting,value
"C[C@H]1CC(=O)N2C[C@]34C[C@]5(CC(=O)N(C)C5=O)C(C)(C)[C@@H]3C[C@]12C(=O)N4C [16-Keto aspergillimide, 16-keto aspergillimide]",Theoretical value (%) calculated by the Colby's formula,[1],65%
same,Death rate (%),"[1]; foliage application, 3 days after release",65%
same,Theoretical value calculated by the Colby's formula (%),[2],26%
same,Death rate (%),"[2]; leaf disk, 3 days after release",26%
same,death rate for the low-sensitive strain compared with the high-sensitive strain,[3]; Table 7 against Table 8,the same
same,Death rate (%),[3]; treatment concentration 5 ppm,60%
same,Death rate (%),[3]; treatment concentration 20 ppm,95%
same,Death rate (%),[3]; treatment concentration 50 ppm,100%
same,Death rate (%),[4]; treatment concentration 5 ppm,95%
same,Death rate (%),[4]; treatment concentration 20 ppm,100%
same,Death rate (%),[4]; treatment concentration 50 ppm,100%
same,pest or weed control at 1 ppm,[5]; [18],10%
same,pest or weed control at 2 ppm,[5]; [18],17%
same,pest or weed control at 1 ppm,[5]; [19],14%
same,pest or weed control at 2 ppm,[5]; [19],20%
same,Theoretical value (%) by Colby's formula,[6]; [20],22%
same,Death rate (%),[6]; [20],22%
same,Death rate (%),[6]; 16-keto aspergillimide 2 μg/2 cm^2 alone,57%
same,Theoretical value (%) by Colby's formula,[6]; 16-keto aspergillimide alone,57%
same,Death rate (%) for each amount of test chemical compound,[7]; [21],100%
same,systemic insecticidal activity compared with control compound Asperparaline A,[7]; Table 15,much higher
same,systemic insecticidal activity,[8],exhibited systemic insecticidal activity
same,Death rate (%),[8]; [21],100%
same,systemic insecticidal activity,[9],exhibited systemic insecticidal activity
same,Death rate (%),[9]; [22],100%
same,systemic insecticidal activity,[10],exhibited systemic insecticidal activity
same,Death rate (%),[10]; [22],100%
same,systemic insecticidal activity,[11],exhibited systemic insecticidal activity
same,Death rate (%),[11]; [22],100%
same,systemic insecticidal activity,[12],exhibited systemic insecticidal activity
same,Death rate (%),"[12]; 2.0 mg/seedling, cucumber seedlings, 6 days after release",100%
same,insecticidal activity by foliage application,[13],exhibited insecticidal activity
same,Death rate (%),[13]; [23],100%
same,insecticidal activity in foliage application,[14],exhibited insecticidal activity
same,Death rate (%),[14]; [23],100%
same,Death rate (%),"[15]; 100 ppm, haricot leaf disk, 3 days after release",100%
same,insecticidal activity by foliage application,[15]; foliage application,exhibited insecticidal activity
same,anthelmintic activity,[16],anthelmintically active
same,Theoretical value (%) calculated by the Colby's formula,[17],30%
same,Death rate (%),"[17]; soil drenching, 3 days after release",30%
